Laboratory results as given in patent US7217710B2, “Substituted pyrazolopyrimidines” (SmithKline Beecham Corporation, priority 2001, dated 2007).

Tests used:
[1] = target: T1, GST-VEGFR2 (Homo sapiens, UniProt P35968); test: VEGF-R2 Enzyme Assay (VEGF-E2), LANCE method; format: biochemical; conditions: read-out: VEGFR2 PIC50 VEGFR-E2 assay
T1 construct: GST-VEGFR2, baculovirus expressed recombinant constructs of the intracellular domains; made in house

[2] = target: T2, GST-TIE2 (intracellular domains of human TIE2) (Homo sapiens, UniProt Q02763); test: TIE-2 Enzyme Assay (TIE2-E2), LANCE method; format: biochemical; conditions: read-out: TIE2 PIC50 TIE2-E2 assay
T2 construct: made in house
Summary of the method: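 GST-tagged human TIE2 intracellular domain (aa 762–1104), preactivated 2 h with 80 μM ATP, then 5 nM enzyme run 2 h at room temperature with 1 μM biotinylated D1–15 peptide, 80 μM ATP, HEPES pH 7.4, 2.4% DMSO. Phosphotyrosine detected by LANCE (Eu anti-pTyr/streptavidin-APC) after EDTA stop; IC50 by nonlinear regression, reported as pIC50.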

[3] = target: T3, catalytic domain of human VEGFR3 (Homo sapiens, UniProt P35916, H890Q); test: VEGFR-3 Homogenous Time-Resolved Fluorescence Assay (VEGFR-3-HTRF); format: biochemical; conditions: read-out: VEGFR3 PIC50 VEGFR-3-HTRF assay
T3 construct: made in house; host or cells: Sf9 insect cells (baculovirus, pFastBac1)
Text: VEGFR—3-Homogenous Time-Resolved Fluorescence Assay (VEGFR-3-HTRF)
This assay assesses Vascular Endothelial Growth Factor 3 (VEGFR3) tyrosine kinase inhibitory activity in substrate phosphorylation assays. The assay examines the ability of small molecule organic compounds to inhibit the tyrosine phosphorylation of a peptide substrate.
The substrate phosphorylation assays use the VEGFR3 catalytic domain, which is expressed in Sf. 9 insect cells as an amino-terminal GST-tagged fusion protein. The catalytic domain of human VEGFR3 (AA residues #819–1298 based upon GenBank Accession #XM003852) is cloned by PCR from human Placenta Marathon Ready cDNA (Clontech). The PCR product is subcloned into pFastBac1 vector containing an N-terminal GST tag. The resulting pFB/GST/VEGFR3icd vector is used to generate a recombinant baculovirus for protein expression. The VEGFR3 catalytic domain translated sequence is:
Autophosphorylation allows enzymes to be fully activated prior to addition to peptide substrates. The assays are performed using enzyme that has been activated by autophosphorylation via preincubation in buffer with ATP and magnesium. Activated enzyme is then diluted and added to titrated compound and the substrate mix.
200 nM VEGFR3 enzyme is activated for 45 minutes at room temperature by incubating the enzyme in buffer containing 100 mM HEPES (pH7.2), 75 μM ATP, 0.3 mM DTT, 0.1 mg/mL BSA, and 10 mM MgCl2. After activation, VEGFR3 is diluted 100-fold into 2× dilution buffer: 200 mM HEPES (pH 7.5), 0.2 mg/mL BSA, 0.6 mM DTT. 20 μL of the diluted enzyme mix is added to 20 μL of 2× substrate mix (150 μM ATP, 20 mM MgCl2, 0.72 μM biotinylated peptide) in the assay plates. Final assay conditions are: 100 mM HEPES (pH 7.2), 75 μM ATP, 10 mM MgCl2, 0.1 mg/mL BSA, 0.3 mM DTT, 0.36 μM biotinylated peptide, and 1 nM VEGFR3 enzyme. Assay plates are incubated for 1.5 hours at room temperature before the addition of 30 μL 100 mM EDTA to the wells to stop the enzymatic reaction. 40 μL/well of HTRF mix are then added to the assay plates for the detection of phosphorylated substrate. Final assay concentrations are: 100 mM HEPES (pH7.2), 0.1 mg/mL BSA, 15 nM streptavidin-labeled allophycocyanin (PerkinElmer), and 1 nM europium-labeled anti-phosphotyrosine antibody (PerkinElmer). Assay plates are left unsealed and are counted in a Wallac Multilabel Counter 1420 (PerkinElmer).
The data for dose responses are plotted as % Control calculated with the data reduction formula 100*(U1–C2)/(C1–C2) versus concentration of compound where U is the unknown value, C1 is the average control value obtained for DMSO , and C2 is the average control value obtained for 0.1M EDTA. Data are fitted to the curve described by: y=((Vmax*x)/(K+x)) where Vmax is the upper asymptote and K is the IC50.

[4] = target: T4, TIE2 intracellular domain/c-fms extracellular domain (TIE2/c-fms) chimeric protein (Homo sapiens, UniProt Q02763); test: TIE-2 Autophosphorylation Assay (TIE2-C); format: cell-based; conditions: TIE2/c-fms expressing mouse 3T3 cells
T4 construct: fused on or other part: c-fms (CSF1R) extracellular domain in place of TIE2's own ectodomain; it serves as the capture handle for the anti-c-fms ELISA; P07333 (Macrophage colony-stimulating factor 1 receptor)
Description: TIE-2 Autophosphorylation Assay (TIE2-C)
The TIE-2 autophosphorylation assay uses an ELISA method and a TIE2 intracellular domain/c-fms extracellular domain (TIE2/c-fms) chimeric protein expressing mouse 3T3 cell line. This assay measures the autophosphorylation level of TIE2 protein expressed in cells. The cells are cultured in 96 well plates and grown in high glucose DMEM containing 10% serum at 37° C. in a humidified 10% CO2, 90% air incubator. On the day of the assay, the serum containing medium is removed from the cells and replaced with serum free medium for one hour. The test compound (diluted from a 10 mM stock in DMSO, final DMSO concentration is 0.1%) is incubated with TIE2/c-fms expressing cells for 30 minutes in serum free DMEM. Intrinsic cellular dephosphorylation of the receptor is blocked by the addition of the tyrosine phosphatase inhibitor, sodium orthovanadate, from a 100 mM aqueous stock to a final concentration of 1 mM. The culture media is removed by aspiration and the cells incubated for 30 to 60 mins on ice with lysis buffer containing 137 mM NaCl, 2 mM EDTA, 10% glycerol, 1 mM sodium ortho vanadate, 1×tyrosine phosphatase inhibitor cocktail (Sigma) and complete protease inhibitor cocktail (Roche) in 20 mM Tris-HCl (pH8.0). The cell extracts are transferred into Rat anti-c-fms antibody (Zymed-clone 12-2d6) ([…]) coated 96 well plates and incubated for 12 hrs at 4 degrees. The extracts are removed by aspiration and the plate, washed in a buffer comprising PBS, 0.05% Tween-20, 0.05% NP-40 and 5% SuperBlock (Pierce) followed by incubation with an HRP (horseradish peroxidase) conjugated anti-phosphotyrosine antibody, (Upstate Biotech) The plates are again washed with the aforementioned wash buffer and the colorimetric HRP substrate, TMB is added. The reaction progresses for 90 seconds and is stopped with the addition of 2M H2SO4. The optical density at 450 nm derived from HRP catalyzed TMB is measured with a plate reader capable of reading at the appropriate wavelength (e.g. SpectroMax from Molecular Dynamics). The percent inhibition of activity is calculated relative to non-vanadate treated control wells. The concentration of test compound that inhibits 50% of activity (IC50) is interpolated using nonlinear regression (Levernberg-Marquardt) and the equation, y=Vmax (1−x/(K+x))+Y2, where “K” is equal to the IC50.

T3 sequence (P35916 with tags, fused parts or gaps isoform P35916-1 H890Q): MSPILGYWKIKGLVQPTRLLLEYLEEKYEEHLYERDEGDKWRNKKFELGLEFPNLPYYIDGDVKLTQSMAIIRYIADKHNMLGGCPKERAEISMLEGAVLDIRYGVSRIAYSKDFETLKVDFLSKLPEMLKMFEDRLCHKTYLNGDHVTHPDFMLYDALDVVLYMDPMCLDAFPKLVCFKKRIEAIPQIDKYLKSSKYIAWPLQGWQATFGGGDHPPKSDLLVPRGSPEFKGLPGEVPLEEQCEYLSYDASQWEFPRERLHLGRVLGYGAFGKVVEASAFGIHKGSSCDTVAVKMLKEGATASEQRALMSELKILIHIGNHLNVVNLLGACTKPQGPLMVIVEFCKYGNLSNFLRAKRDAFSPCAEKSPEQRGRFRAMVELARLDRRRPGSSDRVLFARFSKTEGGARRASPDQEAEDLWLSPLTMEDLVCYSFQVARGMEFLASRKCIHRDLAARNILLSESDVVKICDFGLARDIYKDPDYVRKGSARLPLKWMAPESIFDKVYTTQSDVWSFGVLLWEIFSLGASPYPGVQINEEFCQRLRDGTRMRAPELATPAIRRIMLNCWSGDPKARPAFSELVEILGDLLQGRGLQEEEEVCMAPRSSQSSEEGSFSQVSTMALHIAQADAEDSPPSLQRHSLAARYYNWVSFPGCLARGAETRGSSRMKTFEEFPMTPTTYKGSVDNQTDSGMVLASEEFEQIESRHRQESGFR
T2 sequence (Q02763 762-1104): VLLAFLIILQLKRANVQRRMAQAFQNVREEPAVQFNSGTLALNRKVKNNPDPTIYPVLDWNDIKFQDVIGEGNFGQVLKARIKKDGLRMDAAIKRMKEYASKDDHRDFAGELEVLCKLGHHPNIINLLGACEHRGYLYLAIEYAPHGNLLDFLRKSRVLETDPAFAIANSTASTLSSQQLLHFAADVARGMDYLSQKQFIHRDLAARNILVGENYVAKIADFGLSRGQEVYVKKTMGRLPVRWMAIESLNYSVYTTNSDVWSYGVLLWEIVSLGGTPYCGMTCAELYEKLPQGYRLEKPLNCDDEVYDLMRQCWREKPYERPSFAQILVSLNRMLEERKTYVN
T1 sequence (P35968 786-1356 limits assumed): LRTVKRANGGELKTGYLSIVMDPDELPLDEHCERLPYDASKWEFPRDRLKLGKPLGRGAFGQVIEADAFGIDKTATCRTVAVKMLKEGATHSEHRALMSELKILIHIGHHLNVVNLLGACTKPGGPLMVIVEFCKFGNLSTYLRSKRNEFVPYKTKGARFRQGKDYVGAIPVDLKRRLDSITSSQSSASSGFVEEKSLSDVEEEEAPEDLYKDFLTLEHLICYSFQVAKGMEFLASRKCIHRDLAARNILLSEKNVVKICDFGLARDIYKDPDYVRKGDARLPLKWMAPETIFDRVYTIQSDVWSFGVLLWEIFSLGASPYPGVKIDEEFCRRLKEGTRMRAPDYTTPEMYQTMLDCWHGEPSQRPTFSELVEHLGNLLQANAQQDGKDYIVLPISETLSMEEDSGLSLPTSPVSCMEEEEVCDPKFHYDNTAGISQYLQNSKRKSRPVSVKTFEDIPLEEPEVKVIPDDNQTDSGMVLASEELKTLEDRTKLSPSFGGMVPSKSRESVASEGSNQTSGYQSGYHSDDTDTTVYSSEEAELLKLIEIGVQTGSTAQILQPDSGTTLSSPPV
T4 sequence (Q02763 whole entry, change not shown, the tested form may be a part): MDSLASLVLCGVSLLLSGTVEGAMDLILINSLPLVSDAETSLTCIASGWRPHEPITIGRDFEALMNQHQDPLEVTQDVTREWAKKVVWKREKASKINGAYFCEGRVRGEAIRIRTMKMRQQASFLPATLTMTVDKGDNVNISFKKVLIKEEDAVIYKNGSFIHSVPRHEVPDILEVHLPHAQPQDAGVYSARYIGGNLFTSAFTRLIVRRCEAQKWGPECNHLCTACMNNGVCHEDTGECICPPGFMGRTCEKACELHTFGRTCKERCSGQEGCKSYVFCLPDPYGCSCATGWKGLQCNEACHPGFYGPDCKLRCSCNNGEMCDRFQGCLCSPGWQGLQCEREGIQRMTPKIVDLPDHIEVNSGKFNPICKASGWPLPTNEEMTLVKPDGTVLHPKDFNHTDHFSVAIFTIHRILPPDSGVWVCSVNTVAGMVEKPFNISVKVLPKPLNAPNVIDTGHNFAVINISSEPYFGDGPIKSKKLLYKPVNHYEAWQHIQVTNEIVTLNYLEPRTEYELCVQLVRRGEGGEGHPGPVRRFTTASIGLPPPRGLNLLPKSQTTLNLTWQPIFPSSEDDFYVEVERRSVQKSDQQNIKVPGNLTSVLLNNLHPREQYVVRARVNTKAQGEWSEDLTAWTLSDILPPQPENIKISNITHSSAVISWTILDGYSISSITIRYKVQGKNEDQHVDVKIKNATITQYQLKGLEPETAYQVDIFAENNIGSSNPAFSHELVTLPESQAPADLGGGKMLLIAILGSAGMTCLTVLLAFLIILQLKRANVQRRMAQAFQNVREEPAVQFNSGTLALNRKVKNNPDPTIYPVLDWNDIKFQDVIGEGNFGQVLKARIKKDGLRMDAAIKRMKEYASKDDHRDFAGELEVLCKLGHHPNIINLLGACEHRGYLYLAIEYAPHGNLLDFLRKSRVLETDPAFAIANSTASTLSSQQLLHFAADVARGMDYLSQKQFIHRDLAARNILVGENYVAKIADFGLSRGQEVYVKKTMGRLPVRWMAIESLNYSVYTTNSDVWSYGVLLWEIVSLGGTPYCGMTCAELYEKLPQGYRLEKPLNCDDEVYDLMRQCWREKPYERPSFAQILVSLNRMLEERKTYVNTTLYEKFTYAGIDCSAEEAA

Compound	IC50 [1] [µM]	IC50 [2] [nM]	IC50 [3] [nM]	IC50 [4] [nM]
Cn1nc(-c2ccc(NS(=O)(=O)c3cccc(Cl)c3Cl)cc2)c2cnc(NCCCN3CCCC3=O)nc21 [Example 67]	1 to 10	1000 to 10000	1000 to 10000	
CC(=O)Nc1ncc2c(-c3ccc(NS(=O)(=O)c4cccc(Cl)c4Cl)cc3)nn(C)c2n1 [Example 71]	1 to 10	1000 to 10000	100 to 1000	
CC(C)n1nc(-c2ccc(NS(=O)(=O)c3cccc(Cl)c3Cl)cc2)c2cnc(NCCN3CCOCC3)nc21 [Example 77, 2,3-Dichloro-N-{4-(1-isopropyl-6-(2-morpholin-4-yl-ether)-1H -pyrazolo[3,4-d]pyrimidin-3-yl}-phenyl}-benzenesulfonamide]	1 to 10	100 to 1000	1000 to 10000	
Cn1nc(-c2ccc(NC(=O)Nc3cc(C(F)(F)F)ccc3F)cc2)c2cnc(NCCCCCO)nc21 [Example 82]	> 10	39.8 to 100	> 10000	
CCN(CC)CCCNc1ncc2c(-c3ccc(NC(=O)Nc4cc(C(F)(F)F)ccc4F)cc3)nn(C)c2n1 [Example 88, 1-(2-Fluoro-5-trifluoromethyl-phenyl)-3-{4-[1-methyl-6-(3-diethylamino-propylamino)-1H-pyrazolo[3,4-d]pyrimidin-3-yl]-phenyl} urea]		≤ 39.8		≥ 300
Cn1nc(-c2ccc(NC(=O)Nc3cc(C(F)(F)F)ccc3F)cc2)c2cnc(NCCCNS(C)(=O)=O)nc21 [Example 96, N-[3-(3-{4-[3-(2-Fluoro-5-trifluoromethyl-phenyl)-ureido]-phenyl}-1-methyl-1H-pyrazolo[3,4-d]pyrimidin-6-ylamino)-propyl]-methanesulfonamide]	1 to 10	39.8 to 100	1000 to 10000	
Cn1nc(-c2ccc(NC(=O)Nc3cc(C(F)(F)F)ccc3F)cc2)c2cnc(NCCCCNS(C)(=O)=O)nc21 [Example 97, N-[4-(3-{4-[3-(2-Fluoro-5-trifluoromethyl-phenyl)-ureido]-phenyl} -1-methyl-1H-pyrazolo[3,4-d]pyrimidin-6-ylamino)-butyl]-methanesulfonamide]	> 10	39.8 to 100	1000 to 10000	
CC(=O)NCCNc1ncc2c(-c3ccc(NC(=O)Nc4cc(C(F)(F)F)ccc4F)cc3)nn(C)c2n1 [Example 98]	1 to 10	≤ 39.8	> 10000	
Cn1cccc1CCNc1ncc2c(-c3ccc(NC(=O)Nc4cc(C(F)(F)F)ccc4F)cc3)nn(C)c2n1 [Example 101, 1-(2-Fluoro-5-trifluoromethyl-phenyl)-3-{4-[1-methyl-6-(2-[1-methyl-1H-pyrrol-2-yl]-ethylamino)-1H-pyrazolo[3,4-d]pyrimidin-3-yl]-phenyl} urea]	1 to 10	≤ 39.8	1000 to 10000	
Cn1nc(-c2ccc(NS(=O)(=O)c3cccc(Cl)c3Cl)cc2)c2cnc(NCCN3CCNC3=O)nc21 [Example 109, 2,3-Dichloro-N-(4-{1-methyl-6-[2-(2-oxo-imidazolidin-1-yl)-ethylamino]-1H-pyrazolo[3,4-d]pyrimidin-3-yl]-phenyl}-benzenesulfonamide]	1 to 10	> 10000	100 to 1000	
Cn1nc(-c2ccc(NS(=O)(=O)c3cccc(Cl)c3Cl)cc2)c2cnc(NCCCO)nc21 [Example 112, 2,3-Dichloro-N-{4-[1-methyl-6-(3-hydroxy-propylamino)-1H-pyrazolo[3,4-d]pyrimidin-3-yl]-phenyl}-benzenesulfonamide]	1 to 10	> 10000	1000 to 10000	
Cn1nc(-c2ccc(NS(=O)(=O)c3cccc(Cl)c3Cl)cc2)c2cnc(NCCCCO)nc21 [Example 113, 2,3-Dichloro-N-{4-[1-methyl-6-(4-hydroxy-butylamino)-1H-pyrazolo[3,4-d]pyrimidin-3-yl]-phenyl}-benzenesulfonamide]	1 to 10	1000 to 10000	1000 to 10000	
Cn1nc(-c2ccc(NS(=O)(=O)c3cccc(Cl)c3Cl)cc2)c2cnc(NCCCCCO)nc21 [Example 114, 2,3-Dichloro-N-{4-[1-methyl-6-(5-hydroxy-pentylamino)-1H-pyrazolo[3,4-d]pyrimidin-3-yl]-phenyl}-benzenesulfonamide]	1 to 10	1000 to 10000	1000 to 10000	
Cn1nc(-c2ccc(NS(=O)(=O)c3cccc(Cl)c3Cl)cc2)c2cnc(NCCCCNS(C)(=O)=O)nc21 [Example 122, 2,3-Dichloro-N-{4-[1-methyl-6-(4-methanesulfonylamino-butylamino)-1H-pyrazolo[3,4-d]pyrimidin-3-yl]-phenyl}-benzenesulfonamide]	> 10	1000 to 10000	1000 to 10000	
Cn1nc(-c2ccc(NC(=O)Nc3cc(C(F)(F)F)ccc3F)c(F)c2)c2cnc(NCCCn3ccnc3)nc21 [Example 132, 1-(2-Fluoro-5-trifluoromethyl-phenyl)-3-{2-fluoro-4-[1-methyl-6-(3-(imidazol-1-ylpropylamino)-1H-pyrazolo[3,4-d]pyrimidin-3-yl)-phenyl]} urea]	1 to 10	≤ 39.8	1000 to 10000	
Cn1nc(-c2ccc(NC(=O)Nc3cc(C(F)(F)F)ccc3F)cc2)c2cnc(NCc3ccncc3)nc21 [Example 143, 1-(2-Fluoro-5-trifluoromethyl-phenyl)-3-{4-[(1-methyl-6-(pyridin-4-ylmethyl)-amino)-1H-pyrazolo[3,4-d]pyrimidin-3-yl]-phenyl} urea]	1 to 10	100 to 1000	> 10000	
